A word on the pEC50: it is −log10 of the EC50, conventionally taken in molar units. High values mean a small EC50, low ones a large EC50. In general, solubility refers to the concentration that dissolves in the medium under given conditions.

These results are taken from US10538490B2, “Benzylaminopyridylcyclopropanecarboxylic acids, pharmaceutical compositions and uses thereof” (Boehringer Ingelheim International GmbH, priority 2016, dated 2020).

For one data set, the target named is human GPR40 receptor (Homo sapiens, UniProt O14842). In words: IP1 accumulation measurements using the IPOne assay system. Format: cell-based. The conditions noted are these: 1321N1 cells stably expressing human GPR40 receptor, stimulation 1 h at 37° C. The procedure: IP1 accumulation measurements using the IPOne assay system—1321N1 cells stably expressing human GPR40 receptor (Euroscreen, Belgium) are seeded 24 h before the assay in white 384-well plates in culture medium containing 10% FCS, 1% Na-Pyruvate and 400 μg/mL G418. IPi is assayed according to the manufacturer's description (Cisbio Bioassays, France). In brief, the assay is started by substitution of the culture medium by stimulation buffer (Hepes 10 mM, CaCl2 1 mM, MgCl2 0.5 mM, KCl 4.2 mM, NaCl 146 mM, glucose 5.5 mM and LiCl 50 mM, pH 7.4). Cells are stimulated for 1 h at 37° C., 5% CO2 by addition of the compounds that are diluted in stimulation buffer containing LiCl. Assays are stopped by adding HTRF-conjugates (IP1-d2 and Anti-IP1 cryptate Tb) and lysis buffer, provided by the manufacturer. After an incubation time of 1 h at room temperature plates are measured using an EnVision™, Perkin Elmer. The obtained fluorescence ratios at 665/615 […] are then used to calculate the pEC50 values using Assay Explorer 3.3 Software (Accelrys, Inc.) by interpolation using an IP1 reference curve and subsequent sigmoidal curve fitting allowing for a variable hill slope.

A short description of data set [1]: Chemical stability (degradation kinetics) at pH value of ca. 1.2. The conditions noted are these: pH value of ca. 1.2 (acetonitrile/0.1 M aqueous HCl 2:3), 37° C., HPLC. It is filed as physicochemical. The procedure:
Degradation kinetics is used to simulate chemical stability of compounds in the acidic part of the gastro intestinal tract. […] Their application as medical drugs to treat human diseases is therefore less restricted and troublesome.
The chemical stability of the compounds of the invention at pH value of ca. 1.2 is determined as follows:
Compound is dissolved in an HPLC vial either in a mixture of acetonitrile/0.1 M aqueous HCl (2:3; pH ca. 1.2) or in a mixture of acetonitrile/Mcllvaine buffer pH 7.4 (2:3) to get a concentration of approximately 0.25 mg/ml. The vial was then transferred into an HPLC autosampler system and maintained at a temperature of 37° C. A first sample is taken and injected immediately into a standard HPLC system with a UV DAD detector. Further samples are injected after 2, 4, 6, 8 and 10 hours. Amount of degraded compound is measured by determining the recovery rate of compound [%] for each injection using an HPLC standard gradient method. Therefore the peak area of the main peak for the first injection (AUt0) is determined and set as 100%. Peak area of the main peak is determined also for the further injections (AUtn, n=2, 4, 6, 8, 10) and expressed as fraction of […] [%].

The nature of data set [2]: Aqueous solubility in buffer versus acetonitrile/water (1/1), LC-UV. It is filed as physicochemical. The conditions noted are these: kinetic from dmso stock, buffer pH 2.2, 24 h shaking, 2.5% DMSO, ">" if more than 90% dissolved. The procedure: The aqueous solubility of the compounds of the invention is determined by comparing the amount dissolved in buffer to the amount in an acetonitrile/water (1/1) solution. Starting from a 10 mM DMSO stock solution aliquots are diluted with acetonitrile/water (1/1) or buffer, respectively. After 24 h of shaking, the solutions are filtrated and analyzed by LC-UV. The amount dissolved in buffer is compared to the amount in the acetonitrile solution.
Solubility is usually being measured from 0.001 to 0.125 mg/mL at a DMSO concentration of 2.5%. If more than 90% of the compound is dissolved in buffer, the value is marked with “>”.

Structures are written as SMILES. pEC50: −log10 of the molar value. In brackets after ≈: the same amount, converted by molar mass.

Sequence of human GPR40 receptor (O14842 whole entry): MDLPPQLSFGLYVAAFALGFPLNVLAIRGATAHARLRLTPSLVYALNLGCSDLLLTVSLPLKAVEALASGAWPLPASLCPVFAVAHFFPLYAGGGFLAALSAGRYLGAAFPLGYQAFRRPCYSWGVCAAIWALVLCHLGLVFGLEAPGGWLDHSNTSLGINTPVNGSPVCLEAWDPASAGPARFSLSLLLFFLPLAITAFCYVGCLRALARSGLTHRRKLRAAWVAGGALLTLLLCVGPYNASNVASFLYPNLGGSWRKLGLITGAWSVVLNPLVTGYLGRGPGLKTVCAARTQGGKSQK

On to `CC(C)(O)CCOc1ccc(-c2cc(CNc3ccc([C@H]4C[C@@H]4C(=O)O)cn3)ccc2C(F)(F)F)cc1` [Example 4, (1S,2S)-2-(6-{[4′-(3-Hydroxy-3-methyl-butoxy)-6-trifluoromethyl-biphenyl-3-ylmethyl]-amino}-pyridin-3-yl)-cyclopropanecarboxylic Acid], for which the pEC50 on human GPR40 receptor is 7.82. The “Amount of degradation after 2 h” value in data set [1] was less than 0.5%. Moreover, the concentration in solution in data set [2] (solubility at 24 h) was 92 µg/mL (≈ 179 µM).
`Cc1cccc(C)c1-c1ccc(F)c(CNc2ccc([C@H]3C[C@@H]3C(=O)O)cn2)c1` [Example 18] showed a pEC50 at human GPR40 receptor of 6.88. The “Amount of degradation after 2 h” value in data set [1] is given as less than 0.5%. In data set [2], this molecule came in with a solubility at 24 h of more than 120 µg/mL.
In the case of `Cc1cc(C#N)cc(C)c1-c1ccc(F)c(CNc2ccc([C@H]3C[C@@H]3C(=O)O)cn2)c1` [Example 35], the negative-log EC50 (pEC50) on human GPR40 receptor was 6.86. Also, in data set [2], the concentration in solution (solubility at 24 h) came to 86 µg/mL (≈ 207 µM).
As to `Cc1cc(O[C@H]2CCOC2)cc(C)c1-c1ccc(F)c(CNc2ccc([C@H]3C[C@@H]3C(=O)O)cn2)c1` [Example 38], the negative-log EC50 (pEC50) at human GPR40 receptor is 7.03. The molecule further yielded a solubility at 24 h in data set [2] of 99 µg/mL (≈ 208 µM).
Take `Cc1cc(OC2CCOCC2)cc(C)c1-c1ccc(F)c(CNc2ccc([C@H]3C[C@@H]3C(=O)O)cn2)c1` [Example 42]: on human GPR40 receptor, the pEC50 is 7.00. This molecule also returned a solubility at 24 h in data set [2] of 87 µg/mL (≈ 177 µM).
Molecule `Cc1cc(-c2cc(=O)n(C)cn2)cc(C)c1-c1ccc(F)c(CNc2ccc([C@H]3C[C@@H]3C(=O)O)cn2)c1` [Example 43] gave a pEC50 at human GPR40 receptor of 7.27. The same molecule gave a solubility at 24 h in data set [2] of 107 µg/mL (≈ 215 µM).
On to `Cc1cc(-c2nnn(C)n2)cc(C)c1-c1ccc(F)c(CNc2ccc([C@H]3C[C@@H]3C(=O)O)cn2)c1` [Example 48], for which the pEC50 at human GPR40 receptor was 7.70. For the same molecule, the “Amount of degradation after 2 h” value in data set [1] is given as less than 0.5%. For the same molecule, the concentration in solution in data set [2] (solubility at 24 h) was 102 µg/mL (≈ 216 µM).
Consider `Cc1cnc(-c2cc(C)c(-c3ccc(F)c(CNc4ccc([C@H]5C[C@@H]5C(=O)O)cn4)c3)c(C)c2)nc1` [Example 53], for which the pEC50 at human GPR40 receptor is 7.82. In addition, the solubility at 24 h in data set [2] is 78 µg/mL (≈ 162 µM).
`Cc1cc(OCC2(O)CCOCC2)cc(C)c1-c1ccc(F)c(CNc2ccc([C@H]3C[C@@H]3C(=O)O)cn2)c1` [Example 55] gave a pEC50 on human GPR40 receptor of 6.66. This molecule also registered a solubility at 24 h in data set [2] of 122 µg/mL (≈ 234 µM).
`Cc1cccc(C)c1-c1cc(CNc2ccc([C@H]3C[C@@H]3C(=O)O)cn2)c(F)cc1F` [Example 61]: the pEC50 at human GPR40 receptor was 7.44. This molecule also yielded a solubility at 24 h in data set [2] of 42 µg/mL (≈ 103 µM).
`Cc1ccc(Cl)c(-c2cc(CNc3ccc([C@H]4C[C@@H]4C(=O)O)cn3)c(F)cc2F)c1Cl` [Example 67] had a pEC50 at human GPR40 receptor of 7.51. Also, in data set [2], the solubility at 24 h amounted to 84 µg/mL (≈ 181 µM).
Regarding `COc1cc(C)c(-c2cc(CNc3ccc([C@H]4C[C@@H]4C(=O)O)cn3)c(F)cc2F)c(C)c1` [Example 68], the pEC50 at human GPR40 receptor was 7.23. The same molecule displayed a solubility at 24 h in data set [2] of more than 120 µg/mL.
In turn, `Cc1cc(C#N)cc(C)c1-c1cc(CNc2ccc([C@H]3C[C@@H]3C(=O)O)cn2)c(F)cc1F` [Example 77] had a pEC50 on human GPR40 receptor of 7.08. For the same molecule, the solubility at 24 h in data set [2] was found to be 97 µg/mL (≈ 224 µM).
`Cc1cc(O[C@@H]2CCOC2)cc(C)c1-c1cc(CNc2ccc([C@H]3C[C@@H]3C(=O)O)cn2)c(F)cc1F` [Example 80]: the pEC50 on human GPR40 receptor was 7.23. The same molecule yielded a solubility at 24 h in data set [2] of 106 µg/mL (≈ 214 µM).
Regarding `Cc1cc(-c2nnn(C)n2)cc(C)c1-c1cc(CNc2ccc([C@H]3C[C@@H]3C(=O)O)cn2)c(F)cc1F` [Example 90], at human GPR40 receptor, the pEC50 was 8.10. The molecule further returned a solubility at 24 h in data set [2] of 89 µg/mL (≈ 181 µM).
With `Cc1cc(-c2ccnn2C)cc(C)c1-c1cc(CNc2ccc([C@H]3C[C@@H]3C(=O)O)cn2)c(F)cc1F` [Example 92], the negative-log EC50 (pEC50) at human GPR40 receptor is 7.80. Also, the solubility at 24 h in data set [2] is 103 µg/mL (≈ 211 µM).
Taken in the same sequence, the figures for `CCc1cccc(CC)c1-c1cc(CNc2ccc([C@H]3C[C@@H]3C(=O)O)cn2)c(F)cc1F` [Example 93] were 7.14 and 82 µg/mL (≈ 188 µM).
With `Cc1cnc(-c2cc(C)c(-c3cc(CNc4ccc([C@H]5C[C@@H]5C(=O)O)cn4)c(F)cc3F)c(C)c2)nc1` [Example 95], the pEC50 at human GPR40 receptor is 7.96. In data set [2], this molecule showed a solubility at 24 h of 88 µg/mL (≈ 176 µM).
Taken in the same sequence, the figures for `Cc1cc(OCC2(O)CCOCC2)cc(C)c1-c1cc(CNc2ccc([C@H]3C[C@@H]3C(=O)O)cn2)c(F)cc1F` [Example 97] were 6.72 and 123 µg/mL (≈ 228 µM).
`COc1cc(-c2cc(C)c(-c3cc(CNc4ccc([C@H]5C[C@@H]5C(=O)O)cn4)c(F)cc3F)c(C)c2)ccn1` [Example 99] showed a pEC50 at human GPR40 receptor of 8.10. The molecule further had a solubility at 24 h in data set [2] of 97 µg/mL (≈ 188 µM).
Take `Cc1cc(OCCCS(C)(=O)=O)cc(C)c1-c1ccc(F)c2c1CC[C@H]2Oc1ccc([C@H]2C[C@@H]2C(=O)O)cc1` [WO 2013/178575 Example 11]: the “Amount of degradation after 2 h” value in data set [1] was found to be 5%.
As to `Cc1cc(C(=O)NCC(C)(C)O)cc(C)c1-c1ccc(F)c2c1CC[C@H]2Oc1ccc([C@H]2C[C@@H]2C(=O)O)cc1` [WO 2013/178575 Example 15, reference compound], in data set [1], the “Amount of degradation after 2 h” value came out at 3%. Further, the solubility at 24 h in data set [2] was less than 1 µg/mL.
For `Cc1cc(OCCC(C)(C)O)cc(C)c1-c1ccc(F)c2c1CC[C@H]2Oc1ccc([C@H]2C[C@@H]2C(=O)O)cc1` [WO 2013/178575 Example 17, reference compound], the “Amount of degradation after 2 h” value in data set [1] turned out to be 8%. This molecule showed a solubility at 24 h in data set [2] of less than 1 µg/mL.
For the molecule `Cc1cccc(C)c1-c1ccc(F)c2c1CC[C@H]2Oc1ccc(C2CC2C(=O)O)cc1` (stereo partly drawn) [WO 2013/178575 Example 33], the “Amount of degradation after 2 h” value in data set [1] is reported as 8%.
Take `Cc1c(C#N)cccc1-c1ccc(F)c2c1CC[C@H]2Oc1ccc([C@H]2C[C@@H]2C(=O)O)cc1` [WO 2013/178575 Example 54, reference compound]: the “Amount of degradation after 2 h” value in data set [1] is listed as 2.5%. Moreover, the solubility at 24 h in data set [2] was less than 1 µg/mL.
